Earlier results, collected in US7258850B2, “Methods and compositions for treating erectile dysfunction” (Aradigm Corporation, priority 1999, dated 2007).
Where a name gives a salt, the structure may show the parent alone. Read-outs that look alike come from different tables or passages of the source. Values belong to the compound of their own block, whether it stands above or below them. No end group written: not given here.

Experiments:
[1] = system: dopamine D1 and D2 receptor; conditions: rats, apomorphine in combination with sildenafil
[2] = system: human corpus carvernosum; conditions: human tissue
[3] = system: rabbit corpus carvernosum; conditions: rabbit tissue
[4] = system: Rho-kinase; conditions: applied topically, rats
[5] = molecular target: T1, sGC (Rattus norvegicus, UniProt P19686+P20595); conditions: administered intracavernously, rats
T1 construct: host or cells: in vivo, rat corpus cavernosum
T1 sequence (P20595 1-619): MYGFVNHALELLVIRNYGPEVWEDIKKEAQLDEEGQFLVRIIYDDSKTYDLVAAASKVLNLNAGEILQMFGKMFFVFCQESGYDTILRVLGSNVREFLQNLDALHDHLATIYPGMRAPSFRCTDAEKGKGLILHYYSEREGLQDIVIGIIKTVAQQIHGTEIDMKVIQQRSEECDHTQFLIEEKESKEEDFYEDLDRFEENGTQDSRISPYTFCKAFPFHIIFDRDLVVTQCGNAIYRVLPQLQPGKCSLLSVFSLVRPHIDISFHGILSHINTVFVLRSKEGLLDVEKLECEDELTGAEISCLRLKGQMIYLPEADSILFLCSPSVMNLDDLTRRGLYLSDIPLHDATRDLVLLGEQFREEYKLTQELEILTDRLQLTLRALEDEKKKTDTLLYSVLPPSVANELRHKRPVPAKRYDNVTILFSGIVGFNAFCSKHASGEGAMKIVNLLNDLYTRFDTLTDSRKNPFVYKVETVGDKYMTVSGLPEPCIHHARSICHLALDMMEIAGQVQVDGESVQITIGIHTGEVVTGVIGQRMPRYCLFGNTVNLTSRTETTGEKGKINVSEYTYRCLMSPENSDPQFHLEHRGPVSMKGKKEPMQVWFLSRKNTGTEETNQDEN
T1 sequence (P19686 1-690): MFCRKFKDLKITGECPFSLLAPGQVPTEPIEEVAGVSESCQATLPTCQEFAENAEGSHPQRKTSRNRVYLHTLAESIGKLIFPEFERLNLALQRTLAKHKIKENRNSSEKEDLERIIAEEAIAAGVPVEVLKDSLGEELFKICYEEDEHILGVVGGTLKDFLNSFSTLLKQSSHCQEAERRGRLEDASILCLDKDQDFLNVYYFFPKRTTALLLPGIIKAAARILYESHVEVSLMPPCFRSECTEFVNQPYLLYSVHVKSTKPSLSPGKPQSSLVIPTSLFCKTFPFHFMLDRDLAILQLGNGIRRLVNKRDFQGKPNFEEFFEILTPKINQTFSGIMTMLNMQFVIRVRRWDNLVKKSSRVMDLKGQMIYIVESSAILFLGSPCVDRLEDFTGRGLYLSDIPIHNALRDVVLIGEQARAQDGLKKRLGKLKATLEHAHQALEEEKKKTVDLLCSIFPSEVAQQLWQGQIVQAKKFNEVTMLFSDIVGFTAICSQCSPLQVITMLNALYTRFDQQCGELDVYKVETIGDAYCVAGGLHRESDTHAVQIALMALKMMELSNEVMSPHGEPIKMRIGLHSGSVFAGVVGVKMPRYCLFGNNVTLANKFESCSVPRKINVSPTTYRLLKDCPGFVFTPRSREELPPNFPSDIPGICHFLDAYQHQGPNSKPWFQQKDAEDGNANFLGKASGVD

[6] = system: smooth muscle; conditions: intracavernous

Compound: CN1CCc2cccc3c2[C@H]1Cc1ccc(O)c(O)c1-3 [Apomorphine]
- duration of erectile response [1]: prolonged in combination with sildenafil
- duration of erectile response ([1]; listed as apomorphine): prolonged by sildenafil

Compound: Nc1nc(-c2nn(Cc3ccccc3F)c3ncccc23)ncc1C1CC1 [BAY-41-2272]
- relaxation of corpus cavernosum relative to YC-1 [2]: more potently than YC-1
- relaxation of corpus cavernosum relative to YC-1 [3]: more potently than YC-1

Compound: C[C@@H](N)[C@H]1CC[C@H](C(=O)Nc2ccncc2)CC1 [Y-27632]
- erection [4]: stimulated erection

Compound: OCc1ccc(-c2nn(Cc3ccccc3)c3ccccc23)o1 [YC-1, 3-(5′-hydroxymethyl-2′furyl)-1-benzyl-indazole]
- erection [5]: elicited dose-dependent erection

- solubility in water: relatively insoluble in water
Compound: CCCc1nn(C)c2c(=O)[nH]c(-c3cc(S(=O)(=O)N4CCN(C)CC4)ccc3OCC)nc12 [sildenifil citrate, Sildenafil citrate]

Compound: Vasoactive intestinal peptid: intracavernous drug, potent smooth muscle relaxant (HSDAVFTDNYTRLRKQMAVKKYLNSILN; ends and bridges not checked; UniProt P01282 125-152, looked up)
- duration of effect [6]: up to 2.5 hours
